Results as given in US9951076B2, “Deuterated pentylenetetrazoles for improving cognitive function” (Balance Therapeutics, Inc., priority 2011, dated 2018).

Experiments:
[1] = Metabolic stability in human liver microsomes; type: in vitro ADME; conditions: for microsomal CLint at 1 μM / half-life at 1 μM: pH 7.4, 1 mg/mL human liver microsomes, 1 μM test compound, NADPH regenerating system, 37° C., 0-45 min; for t1/2 increase over t1/2 of PTZ / in vitro t1/2 compared to the t1/2 of PTZ: human liver microsomes; for in vitro t1/2 compared to the t1/2 of PTZ: under the assay conditions tested
Experimental: Human liver microsomes (Lot# FJM) were obtained from Celsis (Baltimore, Md.). Components of the NADPH regenerating system solution A (Lot#29850) and B (Lot#28594) were obtained from BD Gentest (Woburn, Mass.). […] All solvents and buffers were obtained from commercial sources and used without further purification.
NADPH regenerating system (1.3 mM NADP^+, 3.3 mM glucose-6-phosphate, 0.4 U/mL glucose-6-phosphate dehydrogenase, and 3.3 mM magnesium chloride) were prepared by mixing 5 volume of solution A and 1 volume of solution B and pre-warmed at 37° C. in a shaking water bath. Reactions were initiated by adding NADPH regenerating system to the incubation mixtures. After 0, 5, 10, 15, 30 and 45 min of incubation, 0.1 mL reaction mixtures were removed from the incubation plate and mixed with 0.15 mL of ice-cold acetonitrile in an appropriate well of a 96-well crash plate. The 96-well crash plate was placed on ice for 15 min, and samples were centrifuged (2,500 g, 10 min, 4° C.) to precipitate protein. The supernatants were diluted 1:1 (v/v) with water containing 0.015 μM verapamil (internal standard) in 96-well shallow injection plate, which was sealed and submitted for LC/MS or LC/MS/MS analysis utilitzing a API 150 single quadrupole mas spectrometer.
The residual compound remaining (% R) was determined from LC/MS peak areas by comparison to a zero time point. Metabolic half-life (t1/2) and intrinsic clearance (CLint) values were calculated from the slope of ln(%) plotted vs. time.

[2] = cited from earlier work
[3] = orally administered, humans; cited from earlier work

SMILES	microsomal CLint at 1 μM [1]	t1/2 increase over t1/2 of PTZ [1]	in vitro t1/2 compared to the t1/2 of PTZ [1]	half-life at 1 μM [1]	time of peak concentration in blood ([2]; after intravenous (IV) or intraperitoneal (IP) delivery)	plasma half-life ([2]; in vivo)	kindling dose [3]
C[C@]12CC[C@H]3[C@@H](CCC4=CC(=O)CC[C@@]43C)[C@@H]1CC[C@@H]2O [testosterone, reference compound]	76 µL/min/mg	–	–	–	–	–	–
[2H]C1([2H])c2nnnn2C([2H])([2H])C([2H])([2H])C([2H])([2H])C1([2H])[2H] [Compound 1, d10-6,7,8,9-Tetrahydro-5H-tetrazolo[1,5-a]azepine]	0.9 µL/min/mg	45.1%	increased	12.6 h	–	–	–
[2H]C1([2H])CCCC([2H])([2H])n2nnnc21 [Compound 2, 6,6,10,10-d4-6,7,8,9-Tetrahydro-5H-tetrazolo[1,5-a]azepine]	1.3 µL/min/mg	6.3%	increased	9.23 h	–	–	–
[2H]C1([2H])Cc2nnnn2CC([2H])([2H])C1([2H])[2H] [Compound 3]	1.4 µL/min/mg	−2.9%	–	8.43 h	–	–	–
[2H]C1([2H])CC([2H])([2H])c2nnnn2C([2H])([2H])C1 [Compound 4, 6,6,8,8,10,10-d6-6,7,8,9-tetrahydro-5H-tetrazolo[1,5-a]-azepine]	1.2 µL/min/mg	8.8%	increased	9.45 h	–	–	–
C1CCc2nnnn2CC1 [PTZ, pentylenetetrazole]	1.3 µL/min/mg	–	–	8.68 h	≤ 10 min	about 60 minutes	approximately 20 mg/kg
